Measurements as given in patent publication US20130344140A1, “NOVEL PHARMACEUTICAL COMBINATIONS AND METHODS FOR TREATING CANCER” (Agency for Science, Technology and Research, priority 2011, published 2013).
Entries after “also recorded” stand apart in the source; their conditions may differ. Read-outs that look alike come from different tables or passages of the source.

Columns and labels:
ATM = ATM / DNA damage checkpoint dependence of VX-680-induced G2 arrest (western blot, DNA FACS profiles); type: cell-based
Method: For western blotting, cell extracts were prepared using NP-40 lysis buffer (50 mM Tris-HCl (pH 8.0), 150 mM NaCl, 1% NP-40, 5 mM EDTA supplemented with protease and phosphatase inhibitor cocktails (Sigma).

A549 cells [1] = test: Cell cycle / BrdU analysis of A549 cells pretreated with nutlin-3 before VX-680; type: cell-based
Method: Cells were treated with 200 nM VX-680 for 24 h and incubated with […] BrdU for 30 min. […] BrdU-positive cells in untreated control sample (upper left panel) and BrdU-positive cells that are […] DNA (endoreduplicating cells) (upper right panel) are highlighted in the boxes and the percentages over the total cell population are indicated.
(b) is a schematic diagram showing the timing and order of addition of drugs. At 48 h after VX-680 treatment, cells were washed in drug-free media and incubated in drug-free media for another 48, 96 or 120 h. Cell cycle distribution was analyzed by flow cytometry. Also shown are the DNA profiles obtained using the drug treatment protocol depicted in (a).
Cells were incubated in DMEM containing […] BrdU for 30 min in a 37° C./5% CO2 incubator. Detection of BrdU-labeled cells was performed using the In Situ Cell Proliferation Kit from Roche. In brief, cells were harvested and fixed using a 70% ethanol/50 mM Glycine (pH 2.0) on ice. Cells were pelleted and resuspended in the HCl-denaturation solution at room temperature for 20 min. Cells were then pelleted and 50 μl anti-BrdU-FLUOS antibody was added to the cells and incubated for 45 min at 37° C. in a humidified chamber. For staining of total DNA, 7-AAD was added to the cells, followed by incubation at room temperature for 10 min. Cells were analyzed immediately using flow cytometry (BD LSR II System).

HCT116 p53+/+ cells = test: Cell cycle analysis of HCT116 p53+/+ cells (nutlin-3, VX-680); type: cell-based; conditions: HCT116p53+/+
Method: (a) is a comparison of the DNA profiles of P53+/+ and p53−/− cells after treatment with VX-680. HCT116 p53+/+ and p53−/− cells were incubated with 200 nM VX-680 and cells were harvested at the indicated time points for analysis of cell cycle distribution.
(b) is a comparison of the DNA profiles of p53+/+ and p53−/− cells with pre-treatment of Nutlin before incubation with VX-680.

A549 cells [2] = test: Colony survival assay, A549; type: cell-based; parameters: enhancement of the fraction of surviving colonies: dose or concentration left out as unconfirmed
Method: (§1) Colonies were counted 2 weeks after recovery in drug-free media. Cells were fixed with glutaraldehyde and stained with crystal violet. Plates are scanned and colonies were counted with an automated image analyzer. Three independent experiments were performed for each cell line.
(§2) Each data point represents the mean±S.D.
(§3) A total of 1000 cells were plated on each 10 cm plate and allowed to adhere overnight. […] After 48 h, cells were washed and recovered in fresh media for 12 days. Cells were then fixed in 6% glutaraldehyde (Sigma) and stained with crystal violet. Colonies were counted using GelCount™ (Oxford Optronix, Oxford, England). Each condition was carried out in triplicate.

HCT116p53+/+ cells = test: Colony survival assay, HCT116p53+/+; type: cell-based; conditions: pretreated with nutlin-3, versus VX-680 alone
Method: as §1, §2, §3

p53-deficient HCT116 = test: Colony survival assay, p53-deficient HCT116; type: cell-based; conditions: p53-deficient HCT116, nutlin-3 pretreatment before VX-680
Method: as §1, §2, §3

[3] = tested on: HCT116p53+/+ (green) and HCT116p53−/− (red) cells; test: Co-culture of HCT116p53+/+ GFP and HCT116p53−/− RFP cells; type: cell-based; conditions: mixed population pretreated with nutlin-3 then VX-680, 5 days after drugs removal
Excerpt: (e) is a schematic illustration of fluorescent microscopy images of HCT116 p53+/+ and p53−/− cells that were transduced with recombinant lentiviruses carrying GFP and RFP genes, respectively. The cells were selected in zeocin for 2 weeks to achieve the stable cell lines, HCT116 p53+/+GFP and HCT116 p53−/− RFP. Equal numbers of HCT116 p53+/+GFP and p53−/− RFP were mixed and seeded to achieve 30% growth confluency. […] Cells were then washed twice with drug-free media and allowed to recover for 5 days in fresh complete media. Microscopy images were taken with Deltavision (Axio). […] Insets 1 and 2 show higher magnification of the images on the left.
We further studied the responses of p53 wild-type and p53-deficient cells in co-culture system, in which both cell types were cultured together for the duration of the experiment. HCT116p53+/+ and the HCT116p53−/− cells were distinguished using green fluorescent protein (GFP) and red fluorescent protein (RFP) fluorescent markers. Equal numbers of HCT116p53+/+ (green) and HCT116p53−/− (red) cells were mixed and plated in 10 cm plates, before exposure to a similar drug dosage regimen as described in FIG. 6c.

[4] = tested on: MDA-MB 468 and HCT116 p53−/−; test: Annexin V apoptosis assay, p53-compromised cell lines; type: cell-based; conditions: p53-compromised cells pretreated with nutlin-3 before VX-680
Method: Cells were then harvested and stained for annexin V to detect apoptotic cells.
For analysis of apoptosis, cells were harvested without fixation. Apoptosis was evaluated using the annexin V (fluorescein isothiocyanate (FITC))-propidium iodide binding assay (Roche, Indianapolis, Ind., USA). The extent of apoptosis was quantified as a percentage of annexin V-positive cells over the total cell population. Flow cytometric analysis was performed on a BD LSR II System (BD Biosciences, Stockholm, Sweden). Data were analyzed using FlowJo software and ModFit LT (Verity Software House, Topsham, Me., USA).

A549 cells [5] = test: Micronuclei formation and γH2AX staining (immunofluorescence microscopy) in A549 cells; type: cell-based; conditions: A549; nutlin-3 only, or nutlin-3 16 h before VX-680 48 h
Method: Cells were fixed and stained for γH2AX (green) as described in Materials and Methods in the Examples. Nuclei were counterstained with DAPI blue. Visualization of nuclei and γH2AX positive foci was done by fluorescence microscopy.
Indirect immunofluorescence was carried out as described previously.^14 g-H2AX (Novus Biologicals, Littleton, Colo., USA, NB 100-383) and anti-rabbit Alexa 488-coupled secondary antibody (Molecular Probes, Carlsbad, Calif., USA) were used. Nuclei were counterstained with Hoechst 33342 (Molecular Probes). Immunofluorescence was visualized using Axiolmager Z1 (Zeiss, Gottingen, Germany).

human keratinocytes = conditions: for tetraploidy / endoreduplication after nutlin pretreatment: keratinocytes pretreated with nutlin-3 16 h, then VX-680 (200 nM) 48 h
Method: Primary human keratinocytes were purchased from Invitrogen and cultured in defined keratinocyte serum-free media (Invitrogen). All cell lines were cultured in a CO2 incubator (5% CO2 and 21% O2) at 37° C.
For analysis of cell cycle distribution, cells were harvested and fixed in 70% ethanol/PBS solution. Cells were stained in propidium-iodide containing solution (25 μg/ml propidium iodide supplemented with 1 mg/ml RNase A, in PBS (pH 7.8); Sigma Chemical, St Louis, Mo., USA) for 15 min at room temperature.

`O=c1cc(-c2cccc3c2Sc2ccccc2S3)oc(N2CCOCC2)c1` [KU55933] was tested, and the “γH2AX and ATM-S1981 phosphorylation in response to doxorubicin” value (ATM; KU55933 with 1 μM doxorubicin) was “abrogates the observed phosphorylation in a dose-dependent manner; also recorded: clearly reduced” and the “effect on VX-680-induced G2 arrest” value (ATM; pre-treatment with KU55933 before VX-680) was “does not abrogate”.

With `COc1cccc2c1C(=O)c1c(O)c3c(c(O)c1C2=O)C[C@@](O)(C(=O)CO)C[C@@H]3O[C@H]1C[C@H](N)[C@H](O)[C@H](C)O1` [doxorubicin] the “phospho-S1981 ATM, phospho-H2AX, phospho-S15 p53” value (ATM; 1 μM doxorubicin) was “accumulation”.

In the case of `COc1ccc(C2=N[C@@H](c3ccc(Cl)cc3)[C@@H](c3ccc(Cl)cc3)N2C(=O)N2CCNC(=O)C2)c(OC(C)C)c1` [nutlin-3], the “cell cycle arrest of nutlin-3-pretreated cells” value (A549 cells [1]; A549, nutlin-3 (5 µM) before VX-680 treatment, 48 h VX-680, confirmed by BrdU assay) is reported as “arrested cells even after 48 h of VX-680 exposure”, the “cell cycle arrest of nutlin-3-pretreated cells” value (A549 cells [1]; A549, nutlin-3 (5 μM) followed by VX-680 (200 nM)) is reported as “remained arrested at G1” and the “DNA profile after recovery in drug-free media” value (A549 cells [1]; A549, nutlin-3 pretreatment then VX-680, recovered in drug-free media) is reported as “normal diploid DNA profile”. The “cell cycle arrest by nutlin” value (HCT116 p53+/+ cells) was “induced an arrest”, the “protection from VX-680-induced endoreduplication by nutlin pretreatment” value (HCT116 p53+/+ cells; nutlin-3 16 h then VX-680 (200 nM) and nutlin-3 48 h) was “protects” and the “enhancement of the fraction of surviving colonies” value (A549 cells [2]; A549, pretreated with for 16 h before VX-680 48 h, versus VX-680 alone) was “up to 20 fold”. For the same compound, the “number of surviving colonies” value (A549 cells [2]; nutlin alone) was “moderately decreases”, the “better survival (colony formation)” value (HCT116p53+/+ cells) was “up to 15 fold” and the colony survival rate (p53-deficient HCT116) was “did not affect”. For the same compound, the “number of HCT116p53+/+ (green) cells versus HCT116p53−/− (red) cells” value [3] was “far more than”, the “degree of apoptosis with nutlin-3 pretreatment” value [4] was “no significant difference” and the “frequency of micronuclei and γH2AX staining” value (A549 cells [5]) was “low frequency”. For the same compound, the cellular viability (human keratinocytes) was “high cellular viability”, the “tetraploidy / endoreduplication after nutlin pretreatment” value (human keratinocytes; listed as Nutlin) was “did not show significant tetraploidy” and the “tetraploidy / endoreduplication after nutlin pretreatment” value (human keratinocytes; listed as Nutlin-3) was “protects primary human keratinocytes from endoreduplication”.
